Patent EP4342467A1, “KU INHIBITORS FOR USE IN TUMOR THERAPY” (Masarykova Univerzita, priority 2022, dated 2024)
Where two headings read alike, the source gives them in different places.

What was measured:
HCT116 = test: combination with BIBR1532, relative growth by ATPlite; format: cell-based, human; details: HCT116; 10 µM BIBR1532, 0.25 µM iKU-1 or their combination; 4 days
Protocol: 10,000 HCT116 cells were seeded in 100 µl of McCoy's 5a medium supplemented with 10% Fetal Bovine Serum, 2 mM L-Glutamine and Penicilin/Streptomycin 200 U/l for 1 day in 96well plate and treated with 10 µM BIBR1532, 0.25 µM of iKU-1 or their combination for 4 days. Number of viable cells was measured by ATPlite kit (Perkin Elmer) and normalized to the treatment with 0.5% DMSO. The results presented in Table 2 show a synergistic effect of iKU-1 and BIBR1532 on the growth of HCT116 tumor cell line. Values in the table indicate relative growth assessed by ATPlite kit compared to the control sample treated with 0.5% DMSO after 4 days of treatment.

U2OS = test: as above; format: cell-based, human; details: 10 µM BIBR1532, 0.25 µM iKU-1 or their combination, 4 days
HeLa = test: as above; format: cell-based, human; details: 10 µM BIBR1532, 0.25 µM iKU-1 or their combination, 4 days
HCT116 cells [1] = test: cell proliferation, ATPlite assay; format: cell-based; details: Homo sapiens, HCT-116, 120 h, read-out: Inhibition of cell proliferation IC50
Protocol: HCT116, U2OS and HeLa cells were grown in McCoy's 5a medium supplemented with 10% Fetal Bovine Serum, 2 mM L-Glutamine and Penicilin/Streptomycin 200 U/l each in the presence of Compound 1-9. After growth at 37 °C, 5% CO2 for 3 days, monolayer of cells was detached using TrypLE Express (Gibco), cells were counted using 0.4% trypan blue stain and hemocytometer. […] Number of viable cells was estimated using ATPlite kit (Perkin Elmer).

Ku complex = Ku complex (Homo sapiens, UniProt P12956+P13010); test: microwell protein induced fluorescent enhancement assay (mwPIFE) of Ku-DNA binding; details: for remaining activity at 8 µM: read-out: % binding at 8 µM (100% = 0.5% DMSO); for IC50: estimated from the 0.5 to 8 µM concentration range, read-out: Inhibition of Ku-DNA binding IC50
Protocol: A rapid method for detecting protein-nucleic acid interactions by protein induced fluorescence enhancement. Sci Rep 6, 39653. mwPIFE is based on enhanced fluorescence of cyanine fluorophores attached to nucleic acid probes upon protein binding. […] The probe was immobilized in 96 well plates through biotin (Btn) attached to one end of DNA and incubated with purified Ku complex (0.5 pmol) in 50 µl of binding buffer (10 mM calcium acetate, 60 mM potassium acetate, 20 mM TRISacetate pH 7.9, 100 mg BSA/1). Ku-DNA binding was calculated from altered fluorescence measured by a fluorescence plate reader (Valuchova et al., 2016). […]

HCT116 cells [2] = test: C-circle assay (extrachromosomal circular telomeric DNA); format: cell-based, human; details: C-circle assay in HCT116 cells treated for 3 to 7 days
Protocol: HCT116 cell were incubated for 3, 5 or 7 days in McCoy's 5a medium with 10% Fetal Bovine Serum, 2 mM L-Glutamine and Penicilin/Streptomycin 200 U/l each and supplemented with Compound 1-9. C-circle assay that utilizes rolling circle amplification of circular DNA by φ29 polymerase was performed as described in Henson, J.D., Lau, L.M., Koch, S., Martin La Rotta, N., Dagg, R.A., and Reddel, R.R. (2017). The C-Circle Assay for alternative-lengthening-of-telomeres activity. Methods 114, 74-84. Amplified circular telomeric DNA was detected by dot blot hybridization with P^32-labeled telomeric DNA oligonucleotide (5'-[…]-3' (SEQ ID NO: 6)) (Figure 4).

[3] = literature (Weterings et al. 2016); cited from earlier work
A2780 = test: growth of A2780 cells by ATPlite, alone and in combination with Bleomycin; format: cell-based, human; details: A2780; 0.025 µg/ml Bleomycin, 0.5 µM iKU-1 or their combination; 7 days
Protocol: 2,000 A2780 cells were seeded in 100 µl of RPMI 1640 medium with 300 mg/l L-Glutamine and 10% Fetal Bovine Serum for 1 day in 96well plate and treated by 0.025 µg/ml of Bleomycin, 0.5 µM of iKu-1 or their combination for 7 days. Number of viable cells was measured by ATPlite kit (Perkin Elmer) and normalized to the treatment with 0.5% DMSO.
Values in the table indicate relative growth assessed by ATPlite kit compared to the control sample treated with 0.5% DMSO after 7 days of treatment.
2,000 SKOV3 and A2780 cells were seeded in 100 µl of McCoy's 5a or RPMI 1640 media, respectively, for one day and then incubated with iKU-1 for 7 days. Number of viable cells was measured by ATPlite kit (Perkin Elmer) and normalized to the treatment with 0.5% DMSO.

[4] = ATPlite assay in HCT116 cells treated for 5 days
[5] = mwPIFE, 8 µM inhibitor compared to 0.5% DMSO

Sequence of Ku complex (P12956 whole entry): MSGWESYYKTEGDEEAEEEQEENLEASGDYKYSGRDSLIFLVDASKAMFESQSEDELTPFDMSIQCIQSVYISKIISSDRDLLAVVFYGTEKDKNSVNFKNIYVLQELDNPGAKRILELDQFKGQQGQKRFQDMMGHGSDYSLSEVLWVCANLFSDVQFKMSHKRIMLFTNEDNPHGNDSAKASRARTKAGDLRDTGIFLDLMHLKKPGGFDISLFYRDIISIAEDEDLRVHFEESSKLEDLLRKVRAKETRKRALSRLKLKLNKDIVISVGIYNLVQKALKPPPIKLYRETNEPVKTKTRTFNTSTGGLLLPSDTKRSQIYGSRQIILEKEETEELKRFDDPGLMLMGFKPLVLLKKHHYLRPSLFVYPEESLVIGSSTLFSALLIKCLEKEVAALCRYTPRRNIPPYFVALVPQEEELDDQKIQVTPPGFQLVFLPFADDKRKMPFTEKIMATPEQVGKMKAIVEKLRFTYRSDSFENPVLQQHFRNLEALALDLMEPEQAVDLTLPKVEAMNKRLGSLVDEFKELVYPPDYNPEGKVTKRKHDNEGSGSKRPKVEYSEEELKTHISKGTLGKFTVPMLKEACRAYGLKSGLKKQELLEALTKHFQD
Sequence of Ku complex (P13010 whole entry): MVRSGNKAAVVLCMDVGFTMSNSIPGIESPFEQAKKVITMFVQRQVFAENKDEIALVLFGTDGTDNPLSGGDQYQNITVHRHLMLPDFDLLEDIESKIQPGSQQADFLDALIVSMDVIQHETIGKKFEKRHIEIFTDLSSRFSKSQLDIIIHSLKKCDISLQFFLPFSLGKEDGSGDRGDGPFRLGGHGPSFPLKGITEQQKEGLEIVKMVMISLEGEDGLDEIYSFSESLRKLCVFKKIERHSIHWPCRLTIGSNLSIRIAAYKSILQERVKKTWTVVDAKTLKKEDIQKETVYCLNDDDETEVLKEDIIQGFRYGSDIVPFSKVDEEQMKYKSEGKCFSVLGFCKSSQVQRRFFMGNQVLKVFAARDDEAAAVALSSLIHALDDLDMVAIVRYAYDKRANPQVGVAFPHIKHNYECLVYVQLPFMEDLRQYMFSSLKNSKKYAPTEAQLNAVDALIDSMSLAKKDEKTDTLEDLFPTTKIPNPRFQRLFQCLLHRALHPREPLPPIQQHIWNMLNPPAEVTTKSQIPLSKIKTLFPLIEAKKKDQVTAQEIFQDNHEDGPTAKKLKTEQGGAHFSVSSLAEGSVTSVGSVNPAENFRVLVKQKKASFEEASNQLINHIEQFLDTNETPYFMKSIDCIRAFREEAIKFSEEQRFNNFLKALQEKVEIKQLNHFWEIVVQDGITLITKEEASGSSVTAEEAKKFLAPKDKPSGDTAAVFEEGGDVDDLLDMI

Compound	Concentration inducing c-circle formation (HCT116 cells [2]) [µM]	IC50 (HCT116 cells [1]) [µM]	IC50 (Ku complex; mwPIFE) [µM]	remaining activity at 8 µM (Ku complex) [%]	also measured
C/C(=C\C(=O)Nc1ccccc1C(=O)O)c1ccc2ccccc2c1 [BIBR1532, reference compound]	–	–	–	–	relative growth assessed by ATPlite kit compared to the control sample treated with 0.5% DMSO (HCT116): 0.88; relative growth assessed by ATPlite kit compared to the control sample treated with 0.5% DMSO (U2OS): 0.88; relative growth assessed by ATPlite kit compared to the control sample treated with 0.5% DMSO (HeLa): 0.92
O=C(Nc1nc(-c2ccccn2)cs1)c1cccnc1 [Compound 2]	5	–	–	–	IC50 (HCT116 cells [1]; [4]): < 5 µM; remaining activity at 8 µM (Ku complex; [5]): 97%
O=C(Nc1nc(-c2ccccn2)cs1)c1cccc(Br)c1 [Compound 3]	–	–	–	–	IC50 (HCT116 cells [1]; [4]): < 5 µM; remaining activity at 8 µM (Ku complex; [5]): 76%
O=C(Nc1nc(-c2ccccn2)cs1)c1ccc(NC2CC2)nc1 [Compound 4]	10	8	7	47	–
CC(=O)NCCc1ccc(-c2csc(NC(=O)c3cncc(Br)c3)n2)cc1 [Compound 5]	–	< 5	> 8	75	–
CC(=O)Nc1ccc(-c2csc(NC(=O)c3cncc(Br)c3)n2)cc1 [Compound 6]	–	20	> 8	55	–
O=C(Nc1nc(-c2cccnc2)cs1)c1cncc(Br)c1 [Compound 7]	50	> 20	> 8	55	–
O=C(Nc1nc(-c2ccccc2)cs1)c1cncc(Br)c1 [Compound 8]	50	> 20	> 8	71	–
Cc1ccc(C(=O)Nc2nc(-c3ccccc3)cs2)cc1 [Compound 9]	20	–	> 8	–	IC50 (HCT116 cells [1]; [4]): 9 µM; remaining activity at 8 µM (Ku complex; [5]): 99%
COc1ccc(CCNc2ncc3c(=O)n(-c4cccc(F)c4)c(=O)[nH]c3n2)cc1OC [STL127705]	–	–	–	–	concentration conferring enhanced sensitivity to irradiation [3]: 20 to 30 µM
Bleomycin [reference compound]	–	–	–	–	relative growth assessed by ATPlite kit compared to the control sample treated with 0.5% DMSO (A2780): 1.00
